How the values were obtained:
Type in all cases: binding
AurB or AurC = test: Probe-based (AX9989) kinase profiling in Jurkat lysate: AurB or AurC; details: for AurB or AurC Inhibition % at indicated screening concentration: screening concentration 10 μM
Protocol: (§1) In this example, potency of the compounds as ERK5 inhibitors was assessed, and the compounds were screened for activity against several kinases in Jurkat cells.
(§2) Jurkat cell pellets were resuspended in four volumes of lysis buffer (50 mM HEPES pH 7.5, 150 mM NaCl, 0.1% Triton-X-100, 1% v/v phosphatase, inhibitor cocktail II [EMD/Calbiochem, #524625]), sonicated using a tip, sonicator, and Dounce homogenized. Lysate was cleared by centrifugation, at 16,000 g for 15 min., was gel filtered (BioRad 10DG) and MnCl2 was then added to a final concentration of 20 mM before treatment with the test compound and probe labeling. […] All compound treatments were performed at room temperature.
(§3) Acyl phosphate ATP probe (AX9989) labeling reactions were performed at room temperature with a final probe concentration of 5 μM after a 15 min pre-incubation of lysate with a test compound. All reactions were performed in duplicate, using 445 μl/sample at 5 mg/ml. Probe-labeled lysates were denatured and reduced (6 M urea, 10 mM DTT, 65° C., 15 min), alkylated (40 mM iodoacetamide, 37° C., 30 min, and gel filtered (Sephadex G25) into 10 mM ammonium bicarbonate, 2 M urea, 5 mM methionine. The desalted protein mixture was digested with trypsin (0.015 mg/ml) for 1 hr at 37° C., and desthiobiotinylated peptides were captured using a […] high-capacity streptavidin resin (Thermo Scientific). Captured peptides were then washed extensively using 150 μl/wash with three different wash buffers: (A) 3 times with 1% triton, 0.5% tergitol, 1 mM EDTA in PBS; (B) 18 times with PBS; and (C) 8 times with HPLC grade water. Peptides were eluted from the streptavidin beads using two 35-μL washes of a 50% CH3CN/water mixture containing 0.1% TFA at room temperature.
(§4) Kinase active site peptides were identified and quantified using LC/MS. Percent inhibition was calculated as the normalized decrease in the ESI-MS fragment intensities of probe-labeled peptides in samples incubated with the test compound compared to those without.

ABL or ARG = test: Probe-based (AX9989) kinase profiling in Jurkat lysate: ABL or ARG; details: for ABL or ARG Inhibition % at indicated screening concentration: screening concentration 10 μM
Protocol: as §1, §2, §3, §4

ERK5 = biological target: T1, ERK5 (Homo sapiens, UniProt Q13164); test: Probe-based (AX9989 acyl phosphate ATP probe) kinase profiling in Jurkat lysate: ERK5; details: for IC50: Jurkat lysate; for inhibition at 1 µM: screening concentration 1.0 μM; for inhibition at 10 µM: screening concentration 10 μM, read-out: ERK5 Inhibition % at indicated screening concentration
T1 construct: screened for activity against several kinases in Jurkat cells; endogenous in cells; host or cells: Jurkat cell lysate
Protocol: as §1, §2, §3, §4
ERK5 IC50 values were calculated from the percent inhibition and the screening concentration.

TAO2 = biological target: T2, TAO2 (Homo sapiens, UniProt Q9UL54); test: Probe-based (AX9989) kinase profiling in Jurkat lysate: TAO2; details: for inhibition at 1 µM: screening concentration 1.0 μM; for inhibition at 10 µM: screening concentration 10 μM, read-out: TAO2 Inhibition % at indicated screening concentration
T2 construct: screened for activity against several kinases in Jurkat cells; endogenous in cells; host or cells: Jurkat cell lysate
T2 sequence (Q9UL54 1-1235): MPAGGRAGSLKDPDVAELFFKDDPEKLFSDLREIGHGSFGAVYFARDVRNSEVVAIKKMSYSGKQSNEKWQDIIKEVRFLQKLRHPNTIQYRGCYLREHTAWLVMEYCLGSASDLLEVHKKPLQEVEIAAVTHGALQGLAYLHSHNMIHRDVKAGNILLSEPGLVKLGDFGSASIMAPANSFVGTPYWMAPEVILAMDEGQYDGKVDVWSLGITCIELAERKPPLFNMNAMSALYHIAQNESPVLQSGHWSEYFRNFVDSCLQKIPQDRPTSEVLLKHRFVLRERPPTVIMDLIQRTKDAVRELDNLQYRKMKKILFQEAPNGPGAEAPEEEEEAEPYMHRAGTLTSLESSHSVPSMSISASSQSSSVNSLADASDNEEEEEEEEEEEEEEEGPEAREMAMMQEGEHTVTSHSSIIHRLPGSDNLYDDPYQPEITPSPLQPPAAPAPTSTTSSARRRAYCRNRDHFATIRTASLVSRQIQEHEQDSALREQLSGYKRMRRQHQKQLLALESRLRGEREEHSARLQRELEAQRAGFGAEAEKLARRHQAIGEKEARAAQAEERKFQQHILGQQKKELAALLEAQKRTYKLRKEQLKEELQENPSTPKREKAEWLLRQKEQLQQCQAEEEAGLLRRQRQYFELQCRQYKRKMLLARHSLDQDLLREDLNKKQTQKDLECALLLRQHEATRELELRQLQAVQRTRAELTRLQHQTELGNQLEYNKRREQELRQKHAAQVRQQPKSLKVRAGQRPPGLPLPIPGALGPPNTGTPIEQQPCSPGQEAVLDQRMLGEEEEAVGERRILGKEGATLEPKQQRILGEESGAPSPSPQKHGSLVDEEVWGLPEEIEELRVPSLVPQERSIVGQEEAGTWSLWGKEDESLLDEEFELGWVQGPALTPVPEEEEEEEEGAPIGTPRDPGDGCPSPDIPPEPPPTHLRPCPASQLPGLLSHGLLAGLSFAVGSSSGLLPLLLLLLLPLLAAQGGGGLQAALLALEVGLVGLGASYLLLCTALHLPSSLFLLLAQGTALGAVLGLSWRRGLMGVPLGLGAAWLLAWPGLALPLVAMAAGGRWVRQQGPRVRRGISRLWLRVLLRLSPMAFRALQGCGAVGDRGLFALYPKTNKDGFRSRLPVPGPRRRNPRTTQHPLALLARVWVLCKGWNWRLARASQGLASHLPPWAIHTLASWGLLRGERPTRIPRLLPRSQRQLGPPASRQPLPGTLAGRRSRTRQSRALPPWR
Protocol: as §1, §2, §3, §4

ACK = biological target: T3, ACK (Homo sapiens, UniProt Q07912); test: Probe-based (AX9989) kinase profiling in Jurkat lysate: ACK; details: for inhibition at 1 µM: screening concentration 1.0 μM; for inhibition at 10 µM: screening concentration 10 μM, read-out: ACK Inhibition % at indicated screening concentration
T3 construct: screened for activity against several kinases in Jurkat cells; endogenous in cells; host or cells: Jurkat cell lysate
Protocol: as §1, §2, §3, §4

AurA = biological target: T4, AurA (Homo sapiens, UniProt O14965); test: Probe-based (AX9989) kinase profiling in Jurkat lysate: AurA; details: for inhibition at 1 µM: screening concentration 1.0 μM; for inhibition at 10 µM: screening concentration 10 μM, read-out: AurA Inhibition % at indicated screening concentration
T4 construct: screened for activity against several kinases in Jurkat cells; endogenous in cells; host or cells: Jurkat cell lysate
T4 sequence (O14965 1-403): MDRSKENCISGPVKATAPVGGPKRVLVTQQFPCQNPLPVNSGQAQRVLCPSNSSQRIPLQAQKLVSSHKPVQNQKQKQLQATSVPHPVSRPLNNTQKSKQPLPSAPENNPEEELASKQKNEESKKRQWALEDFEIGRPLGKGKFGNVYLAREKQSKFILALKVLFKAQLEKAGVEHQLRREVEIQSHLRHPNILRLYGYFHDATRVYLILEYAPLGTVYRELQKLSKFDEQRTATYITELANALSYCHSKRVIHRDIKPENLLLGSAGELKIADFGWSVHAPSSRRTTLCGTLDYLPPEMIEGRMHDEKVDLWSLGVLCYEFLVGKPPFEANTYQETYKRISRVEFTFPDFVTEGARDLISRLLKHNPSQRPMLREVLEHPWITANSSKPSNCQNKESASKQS
Protocol: as §1, §2, §3, §4

JAK1 = biological target: T5, JAK1 (Homo sapiens, UniProt P23458); test: Probe-based (AX9989) kinase profiling in Jurkat lysate: JAK1; details: for inhibition at 1 µM: screening concentration 1.0 μM; for inhibition at 10 µM: screening concentration 10 μM, read-out: JAK1 Inhibition % at indicated screening concentration
T5 construct: screened for activity against several kinases in Jurkat cells; endogenous in cells; host or cells: Jurkat cell lysate
Protocol: as §1, §2, §3, §4

AMPKa1 or AMPKa2 = test: Probe-based (AX9989) kinase profiling in Jurkat lysate: AMPKa1 or AMPKa2; details: for AMPKa1 or AMPKa2 Inhibition % at indicated screening concentration: screening concentration 10 μM
Protocol: as §1, §2, §3, §4

[1] = calculated from percent inhibition of AX9989 labeling and the screening concentration
[2] = read-out: Kinase inhibition % at indicated screening concentration: ERK5
[3] = read-out: Kinase inhibition % at indicated screening concentration: TAO2
[4] = read-out: Kinase inhibition % at indicated screening concentration: ACK
[5] = read-out: Kinase inhibition % at indicated screening concentration: AurA
[6] = read-out: Kinase inhibition % at indicated screening concentration: JAK1
[7] = calculated from percent inhibition and screening concentration, AX9989 probe

T5 sequence (P23458 whole entry): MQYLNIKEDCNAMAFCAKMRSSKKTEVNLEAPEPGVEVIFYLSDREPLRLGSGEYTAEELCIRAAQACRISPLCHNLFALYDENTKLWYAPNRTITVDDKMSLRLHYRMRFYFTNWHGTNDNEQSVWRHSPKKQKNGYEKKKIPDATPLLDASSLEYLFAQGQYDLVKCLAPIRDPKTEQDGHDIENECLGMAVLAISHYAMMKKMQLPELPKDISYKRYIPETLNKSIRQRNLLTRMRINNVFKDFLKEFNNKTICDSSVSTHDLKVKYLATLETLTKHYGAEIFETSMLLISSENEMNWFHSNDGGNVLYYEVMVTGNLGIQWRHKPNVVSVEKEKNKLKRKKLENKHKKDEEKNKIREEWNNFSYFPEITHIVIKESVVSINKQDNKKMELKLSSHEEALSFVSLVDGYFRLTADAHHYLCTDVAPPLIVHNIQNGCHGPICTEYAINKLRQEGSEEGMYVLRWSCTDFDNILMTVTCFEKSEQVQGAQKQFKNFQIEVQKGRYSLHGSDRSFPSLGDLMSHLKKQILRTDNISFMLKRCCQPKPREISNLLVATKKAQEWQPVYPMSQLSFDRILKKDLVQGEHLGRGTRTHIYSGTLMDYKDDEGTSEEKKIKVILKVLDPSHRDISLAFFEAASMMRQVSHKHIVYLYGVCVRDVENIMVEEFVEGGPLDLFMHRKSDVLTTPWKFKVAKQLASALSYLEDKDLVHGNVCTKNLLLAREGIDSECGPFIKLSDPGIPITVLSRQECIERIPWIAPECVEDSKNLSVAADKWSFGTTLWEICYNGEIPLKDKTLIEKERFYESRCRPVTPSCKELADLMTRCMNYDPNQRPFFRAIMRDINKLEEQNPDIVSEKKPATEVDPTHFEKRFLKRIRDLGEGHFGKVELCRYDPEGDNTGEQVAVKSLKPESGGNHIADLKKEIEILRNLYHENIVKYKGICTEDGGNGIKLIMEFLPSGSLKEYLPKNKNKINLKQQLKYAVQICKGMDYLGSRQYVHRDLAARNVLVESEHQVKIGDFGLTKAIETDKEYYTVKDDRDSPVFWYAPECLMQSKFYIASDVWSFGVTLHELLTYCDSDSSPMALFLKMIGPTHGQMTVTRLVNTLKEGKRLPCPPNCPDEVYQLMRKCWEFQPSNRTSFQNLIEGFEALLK
T3 sequence (Q07912 whole entry): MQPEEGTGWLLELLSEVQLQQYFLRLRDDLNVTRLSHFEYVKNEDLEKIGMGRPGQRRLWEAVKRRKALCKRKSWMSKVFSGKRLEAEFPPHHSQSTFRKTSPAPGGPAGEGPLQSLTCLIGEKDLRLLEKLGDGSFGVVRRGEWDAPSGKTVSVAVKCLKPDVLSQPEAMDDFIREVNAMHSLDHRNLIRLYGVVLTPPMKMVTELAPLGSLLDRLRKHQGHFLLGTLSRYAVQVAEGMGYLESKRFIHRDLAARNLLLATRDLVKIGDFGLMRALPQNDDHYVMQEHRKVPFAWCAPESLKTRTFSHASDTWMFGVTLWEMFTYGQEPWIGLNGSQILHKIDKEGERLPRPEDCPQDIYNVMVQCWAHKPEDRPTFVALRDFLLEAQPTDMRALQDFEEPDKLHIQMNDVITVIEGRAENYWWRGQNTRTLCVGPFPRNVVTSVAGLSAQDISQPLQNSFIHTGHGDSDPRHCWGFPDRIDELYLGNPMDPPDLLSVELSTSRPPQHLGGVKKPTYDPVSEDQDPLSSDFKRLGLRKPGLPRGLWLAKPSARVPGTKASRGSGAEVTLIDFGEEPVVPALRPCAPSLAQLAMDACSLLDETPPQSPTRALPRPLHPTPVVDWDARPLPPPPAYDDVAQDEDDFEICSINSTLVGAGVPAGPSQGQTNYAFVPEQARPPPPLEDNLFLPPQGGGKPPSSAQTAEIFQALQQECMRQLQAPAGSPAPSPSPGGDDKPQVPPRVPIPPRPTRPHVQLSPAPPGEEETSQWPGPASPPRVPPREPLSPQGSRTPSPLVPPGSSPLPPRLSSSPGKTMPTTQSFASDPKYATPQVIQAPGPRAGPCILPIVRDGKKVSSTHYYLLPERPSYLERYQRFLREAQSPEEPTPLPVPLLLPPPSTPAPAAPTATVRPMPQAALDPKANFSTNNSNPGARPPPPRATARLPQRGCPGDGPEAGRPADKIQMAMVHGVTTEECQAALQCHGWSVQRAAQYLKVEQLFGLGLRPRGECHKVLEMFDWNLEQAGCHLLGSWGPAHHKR
T1 sequence (Q13164 whole entry): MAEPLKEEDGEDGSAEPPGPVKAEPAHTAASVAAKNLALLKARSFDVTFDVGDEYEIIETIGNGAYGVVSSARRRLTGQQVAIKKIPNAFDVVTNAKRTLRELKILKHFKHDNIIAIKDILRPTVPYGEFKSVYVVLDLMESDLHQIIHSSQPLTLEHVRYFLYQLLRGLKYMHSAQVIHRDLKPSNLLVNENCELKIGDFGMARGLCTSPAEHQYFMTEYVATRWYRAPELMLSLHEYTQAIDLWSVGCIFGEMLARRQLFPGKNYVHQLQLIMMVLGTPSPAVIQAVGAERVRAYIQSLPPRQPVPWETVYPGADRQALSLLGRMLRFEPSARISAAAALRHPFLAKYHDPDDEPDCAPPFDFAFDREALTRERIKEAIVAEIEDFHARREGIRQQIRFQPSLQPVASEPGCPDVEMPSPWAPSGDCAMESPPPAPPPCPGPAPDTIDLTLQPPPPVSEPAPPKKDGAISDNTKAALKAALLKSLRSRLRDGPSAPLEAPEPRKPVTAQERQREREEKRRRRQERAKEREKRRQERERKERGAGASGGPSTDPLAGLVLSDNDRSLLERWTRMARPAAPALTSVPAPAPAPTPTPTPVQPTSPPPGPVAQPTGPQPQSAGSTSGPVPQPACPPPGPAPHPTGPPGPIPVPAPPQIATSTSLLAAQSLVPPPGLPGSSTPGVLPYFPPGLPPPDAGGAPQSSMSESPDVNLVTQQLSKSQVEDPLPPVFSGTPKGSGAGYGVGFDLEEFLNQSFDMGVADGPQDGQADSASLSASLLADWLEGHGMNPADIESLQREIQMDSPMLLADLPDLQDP

Compound	Kinase inhibition % at indicated screening concentration: AurB or AurC (AurB or AurC; screening concentration 1.0 μM)	Kinase inhibition % at indicated screening concentration: ABL or ARG (ABL or ARG; screening concentration 1.0 μM)	IC50 (ERK5; [1]) [nM]	inhibition at 1 µM (ERK5; [2]) [%]	inhibition at 1 µM (TAO2; [3]) [%]	inhibition at 1 µM (ACK; [4]) [%]	inhibition at 1 µM (AurA; [5]) [%]	inhibition at 1 µM (JAK1; [6]) [%]	Kinase inhibition % at indicated screening concentration: AMPKa1 or AMPKa2 (AMPKa1 or AMPKa2; screening concentration 1.0 μM)	further results
COC(=O)[C@H]1CC[C@H](Nc2cc3c(cn2)N(C)C(=O)c2ccccc2N3C)CC1 [Compound 81]	E (E is ≦35%)	E (E is ≦35%)	> 500	50 to 75	≤ 35	≤ 35	≤ 35	≤ 35	E (E is ≦35%)	
CN1C(=O)c2ccccc2N(C)c2cc(Nc3ccccc3Cl)ncc21 [Compound 86]	E (E is ≦35%)	E (E is ≦35%)	> 500	50 to 75	≤ 35	≤ 35	≤ 35	≤ 35	E (E is ≦35%)	
COc1ccc(C(=O)N2CCNCC2)cc1Nc1cc2c(cn1)N(C)C(=O)c1ccccc1N2C [Compound 87]	E (E is ≦35%)	E (E is ≦35%)	101 to 500	50 to 75	≤ 35	≤ 35	≤ 35	≤ 35	E (E is ≦35%)	
CN1C(=O)C2CCCCC2N(C)c2cc(NC3CCC(N)CC3)ncc21 (stereo not drawn) [Compound 97]	E (E is ≦35%)	E (E is ≦35%)	> 500	≤ 35	≤ 35	≤ 35	≤ 35	≤ 35	E (E is ≦35%)	
CCOc1cc(Cl)ccc1Nc1cc2c(cn1)N(C)C(=O)c1ccccc1N2C [Compound 104]	E (E is ≦35%)	E (E is ≦35%)	> 500	35 to 50	≤ 35	≤ 35	≤ 35	≤ 35	E (E is ≦35%)	
CCOc1cc(CO)ccc1Nc1cc2c(cn1)N(C)C(=O)c1ccccc1N2C [Compound 112]			101 to 500							Kinase inhibition % at indicated screening concentration: AurB or AurC (AurB or AurC; screening concentration 0.1 μM): E (E is ≦35%); Kinase inhibition % at indicated screening concentration: ABL or ARG (ABL or ARG; screening concentration 0.1 μM): E (E is ≦35%); inhibition at 0.1 µM (ERK5; screening concentration 0.1 μM, read-out: Kinase inhibition % at indicated screening concentration: ERK5): 35 to 50%; inhibition at 0.1 µM (TAO2; screening concentration 0.1 μM, read-out: Kinase inhibition % at indicated screening concentration: TAO2): ≤ 35%; inhibition at 0.1 µM (ACK; screening concentration 0.1 μM, read-out: Kinase inhibition % at indicated screening concentration: ACK): ≤ 35%; inhibition at 0.1 µM (AurA; screening concentration 0.1 μM, read-out: Kinase inhibition % at indicated screening concentration: AurA): ≤ 35%; inhibition at 0.1 µM (JAK1; screening concentration 0.1 μM, read-out: Kinase inhibition % at indicated screening concentration: JAK1): ≤ 35%; Kinase inhibition % at indicated screening concentration: AMPKa1 or AMPKa2 (AMPKa1 or AMPKa2; screening concentration 0.1 μM): E (E is ≦35%)
CCOc1cc(C(=O)O)ccc1Nc1cc2c(cn1)N(C)S(=O)(=O)c1ccccc1N2C [Compound T1]										AurB or AurC Inhibition % at indicated screening concentration (AurB or AurC): E (E is ≦35%); ABL or ARG Inhibition % at indicated screening concentration (ABL or ARG): E (E is ≦35%); IC50 (ERK5; [7]): > 500 nM; inhibition at 10 µM (ERK5): ≤ 35%; inhibition at 10 µM (TAO2): ≤ 35%; inhibition at 10 µM (ACK): ≤ 35%; inhibition at 10 µM (AurA): ≤ 35%; inhibition at 10 µM (JAK1): ≤ 35%; AMPKa1 or AMPKa2 Inhibition % at indicated screening concentration (AMPKa1 or AMPKa2): E (E is ≦35%)
CCOc1cc(C(=O)N2CCC(N3CCCC3)CC2)ccc1Nc1cc2c(cn1)N(C)S(=O)(=O)c1ccccc1N2C [Compound T2]										AurB or AurC Inhibition % at indicated screening concentration (AurB or AurC): E (E is ≦35%); ABL or ARG Inhibition % at indicated screening concentration (ABL or ARG): E (E is ≦35%); IC50 (ERK5; [7]): > 500 nM; inhibition at 10 µM (ERK5): 35 to 50%; inhibition at 10 µM (TAO2): ≤ 35%; inhibition at 10 µM (ACK): ≤ 35%; inhibition at 10 µM (AurA): ≤ 35%; inhibition at 10 µM (JAK1): ≤ 35%; AMPKa1 or AMPKa2 Inhibition % at indicated screening concentration (AMPKa1 or AMPKa2): E (E is ≦35%)

Source: patent US20170008888A1 (KYORIN PHARMACEUTICAL CO., LTD., priority 2014, published 2017)
